Reference: the supplement of paper PMC10307832

Compound: CC(=O)c1c(C)c2cnc(Nc3ccc(N4CCNCC4)cn3)nc2n(C2CCCC2)c1=O [Palbociclib] + C[C@]1(O)C[C@@H](c2nc(-c3ccc4ccc(-c5ccccc5)nc4c3)c3c(N)nccn32)C1 [Linsitinib] (partner 1 µM)
Assay: relative viability (nuclei count vs DMSO), 5 days (fraction); higher = more cells survive
In short: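 Cells from lung cancer lines were seeded into 1536-well plates and, one day later, dosed by pin tool. Treatments were either a single drug or a fixed dose of an anchor drug with five library-drug doses (not always all listed) in √10 steps. After 5 days, nuclei were stained in a one-step fixation (final 0.05% Triton X-100, 1% formaldehyde, 1 ug/ml Hoechst) and counted on 4× images, and relative viability is the treated-to-vehicle nuclei ratio, as the median of duplicate plates.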

| Cell Line | relative viability (first compound 0.01 µM) | relative viability (first compound 0.1 µM) | relative viability (first compound 0.3162 µM) | relative viability (first compound 1 µM) | relative viability (first compound 0.03162 µM) |
| --- | --- | --- | --- | --- | --- |
| NCI-H650 | 0.866 | 0.646 | 0.635 | 0.436 | – |
| NCI-H661 | 0.547 | 0.46 | 0.421 | 0.351 | 0.529 |
| NCI-H727 | 0.226 | 0.283 | 0.289 | 0.282 | 0.285 |
| NCI-H838 | 1.07 | 0.708 | 0.82 | 0.494 | 0.96 |
| NCI-H1299 | 0.961 | 0.908 | 0.866 | 0.685 | 0.983 |
| NCI-H1355 | 0.807 | 0.754 | 0.687 | 0.549 | – |
| NCI-H1395 | 1.35 | 0.737 | 0.887 | 0.726 | 0.968 |
| NCI-H1437 | 1.02 | 0.872 | 0.847 | 0.408 | 1.02 |
| NCI-H1563 | 1.19 | 1.15 | 1 | 0.887 | 1.25 |
| NCI-H1651 | 0.972 | 1.01 | 0.933 | 0.698 | 0.913 |
| NCI-H1666 | 0.868 | 0.634 | 0.619 | 0.37 | 0.751 |
| NCI-H1703 | 1.11 | 0.673 | 0.617 | 0.323 | 0.64 |
| NCI-H1734 | 0.918 | 0.789 | 0.641 | 0.564 | 0.765 |
| NCI-H1755 | 1.01 | 0.873 | 0.814 | 0.711 | 0.987 |
| NCI-H1792 | 0.52 | 0.397 | 0.371 | 0.25 | 0.435 |
| NCI-H1793 | 0.722 | 0.647 | 0.583 | 0.518 | 0.681 |
| NCI-H1915 | 1.11 | 1.07 | 1.01 | 0.947 | 1.04 |
| NCI-H1944 | 1.15 | 1.06 | 1.08 | 0.836 | 0.993 |

| Cell Line | relative viability (first compound 0.01 µM) | relative viability (first compound 0.1 µM) | relative viability (first compound 0.3162 µM) | relative viability (first compound 1 µM) | relative viability (first compound 0.03162 µM) |
| --- | --- | --- | --- | --- | --- |
| NCI-H1975 | 0.956 | 0.886 | 0.766 | 0.716 | 0.864 |
| NCI-H1993 | 0.706 | 0.648 | 0.693 | 0.676 | 0.722 |
| NCI-H2009 | 1.18 | 0.957 | 0.909 | 0.494 | 1.02 |
| NCI-H2023 | 0.658 | 0.57 | 0.472 | 0.316 | 0.597 |
| NCI-H2085 | 1.01 | 0.77 | 0.662 | 0.571 | 0.785 |
| NCI-H2087 | 0.932 | 0.826 | 0.503 | 0.541 | 0.837 |
| NCI-H2126 | 0.736 | 0.693 | 0.598 | 0.428 | 0.706 |
| NCI-H2228 | 0.51 | 0.674 | 0.598 | 0.83 | 0.573 |
| NCI-H2347 | 1.04 | 0.597 | 0.723 | 0.595 | 0.868 |
| NCI-H2405 | 0.992 | 0.49 | 0.808 | 0.54 | – |
| NCI-H3122 | 0.925 | 0.943 | 0.809 | 0.63 | 1.02 |
| PC-3 [JPC-3] | 0.981 | 0.878 | 0.787 | 0.613 | 0.888 |
| PC-14 | 1.04 | 0.869 | 0.802 | 0.689 | 0.847 |
| RERF-LC-KJ | 0.954 | 0.919 | 1.04 | 0.958 | 0.887 |
| SK-LU-1 | 0.975 | 0.777 | 0.771 | 0.627 | 1.06 |
| SK-MES-1 | 1.01 | 0.791 | 0.772 | 0.609 | 1 |
| SW 1573 | 0.69 | 0.639 | 0.669 | 0.5 | 0.733 |
| UMC-11 | 1.02 | 0.888 | 0.536 | 0.326 | 0.894 |
